Source: a compilation of properties of binary mixtures (doi:10.1016/j.molliq.2020.113380)

Test: xn = mol fraction of the nth substance listed
Conditions: 86 kPa, x2 = 0.5

O=C(O)COCC(=O)O + CCCC[N+](CCCC)(CCCC)CCCC.O=S(=O)([O-])O
Conditions	electrical conductivity [S/m]	speed of sound [m/s]	viscosity [mPa·s]
293.15 K	0.0002	1820.2	–
298.15 K	0.0004	1770.7	–
303.15 K	0.0007	1720.3	38300
308.15 K	0.0013	1690.7	21200
313.15 K	0.0022	1661.5	12020
318.15 K	0.0035	1630.3	7750
323.15 K	0.0054	1603.6	5450
328.15 K	0.0081	1581	3520
333.15 K	0.0117	1560.2	2500
338.15 K	–	–	1750
343.15 K	–	–	1250
